US20230398125A1, “TREATING HEPATITIS” (Albireo AB, priority 2022, published 2023)

Key:
Mouse NTCP = target: T1, Mouse NTCP (Mus musculus, UniProt O08705); assay: 3H-taurocholic acid uptake in mouse NTCP-overexpressing cells; type: cell-based; settings: 3H-taurocholic acid transport
T1 construct: expressed in transfected cells; kept under geneticin selection
T1 sequence (O08705 1-362): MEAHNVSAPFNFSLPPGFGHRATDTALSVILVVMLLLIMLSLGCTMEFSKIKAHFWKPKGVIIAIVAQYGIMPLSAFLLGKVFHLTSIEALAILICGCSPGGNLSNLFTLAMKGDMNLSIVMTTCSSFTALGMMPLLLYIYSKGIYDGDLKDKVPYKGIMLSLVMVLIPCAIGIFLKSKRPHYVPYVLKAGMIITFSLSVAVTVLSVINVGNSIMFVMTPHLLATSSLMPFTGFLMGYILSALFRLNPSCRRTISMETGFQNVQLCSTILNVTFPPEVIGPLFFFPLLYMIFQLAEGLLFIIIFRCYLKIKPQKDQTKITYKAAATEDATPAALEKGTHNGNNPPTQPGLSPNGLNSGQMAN
Experimental: 20,000 cells (Human & Mouse NTCP-overexpressing cells) were seeded in 96-well plate in 100 μL MEM-alpha medium supplemented with 10% FBS containing geneticin (1 mg/mL) and incubated at 37° C. in 5% CO2 for 24 hrs. After incubation, media was decanted from the wells and cells were washed two times with 250 μL of basal MEM-alpha medium (FBS-free). After each wash, plates were tapped against a paper towel to ensure maximum removal of residual media. For Human NTCP (hNTCP), incubation mix was prepared by adding test inhibitor dilutions (3-fold serial dilution in DMSO, 10 concentrations) in MEM-alpha (without FBS) containing 0.3 μM ^3H-taurocholic acid and 7.5 μM cold taurocholic acid (maintaining 0.2% final DMSO concentration). […]
The plates were tapped against a paper towel after every wash to ensure maximum removal of blocking buffer. 100 μL of MicroScint-20 was added to the wells and kept overnight at room temperature before reading the plates in MicroBeta2 liquid Scintillation Counter from PerkinElmer under 3H Test for I/L-BAT protocol (set at 120 seconds reading time per well, with normal plate orientation).
(§1) Percentage inhibitions were calculated with respect to the assay controls. […]

Human IBAT = target: T2, Human IBAT (Homo sapiens, UniProt Q12908); assay: 3H-taurocholic acid uptake in human IBAT-overexpressing cells; type: cell-based; settings: 3H-taurocholic acid transport
T2 construct: expressed in transfected cells; kept under puromycin selection
T2 sequence (Q12908 1-348): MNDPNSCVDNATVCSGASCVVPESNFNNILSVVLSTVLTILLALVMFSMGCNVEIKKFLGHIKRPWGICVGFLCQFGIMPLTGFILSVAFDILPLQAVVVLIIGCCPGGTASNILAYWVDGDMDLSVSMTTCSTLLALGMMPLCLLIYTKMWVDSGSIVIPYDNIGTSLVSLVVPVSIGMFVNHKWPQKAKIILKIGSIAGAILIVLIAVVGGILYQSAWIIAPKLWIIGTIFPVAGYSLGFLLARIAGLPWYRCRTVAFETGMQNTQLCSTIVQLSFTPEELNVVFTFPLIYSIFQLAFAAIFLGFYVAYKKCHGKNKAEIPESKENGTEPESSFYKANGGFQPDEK
Experimental: (§2) 10,000 cells (Human & Mouse IBAT-overexpressing cells) were seeded in 96-wells plate in 100 μL MEM-alpha medium supplemented with 10% FBS containing puromycin (10 μg/mL) and incubated at 37° C. in 5% CO2 for 48 hrs. After incubation media was decanted from the wells, cells were washed two times with 250 μL of basal MEM-alpha medium (FBS-free). After each wash, plates were tapped against paper towel to ensure maximum removal of residual media. Test inhibitor dilutions (highest test concentration being 10 μM, 3-fold serial dilution, 10 concentrations) prepared in DMSO were added to the incubation mix (maintaining 0.2% final DMSO concentration) containing 0.25 μM ^3H-taurocholic acid and 5 μM of cold taurocholic acid. […]
(§3) After incubation, the reaction was stopped by keeping the plates on ice water mix for 2-3 minutes and then the incubation mix was aspirated completely from the wells. […] 100 μL of MicroScint-20 was added to the wells and kept overnight at room temperature before reading the plates in MicroBeta2 liquid Scintillation Counter from PerkinElmer under ^3H Test for I/L-BAT protocol (set at 120 seconds reading time per well, with normal plate orientation).
as §1

Mouse IBAT = target: T3, Mouse IBAT (Mus musculus, UniProt P70172); assay: 3H-taurocholic acid uptake in mouse IBAT-overexpressing cells; type: cell-based; settings: 3H-taurocholic acid transport
T3 construct: expressed in transfected cells; kept under puromycin selection
T3 sequence (P70172 1-348): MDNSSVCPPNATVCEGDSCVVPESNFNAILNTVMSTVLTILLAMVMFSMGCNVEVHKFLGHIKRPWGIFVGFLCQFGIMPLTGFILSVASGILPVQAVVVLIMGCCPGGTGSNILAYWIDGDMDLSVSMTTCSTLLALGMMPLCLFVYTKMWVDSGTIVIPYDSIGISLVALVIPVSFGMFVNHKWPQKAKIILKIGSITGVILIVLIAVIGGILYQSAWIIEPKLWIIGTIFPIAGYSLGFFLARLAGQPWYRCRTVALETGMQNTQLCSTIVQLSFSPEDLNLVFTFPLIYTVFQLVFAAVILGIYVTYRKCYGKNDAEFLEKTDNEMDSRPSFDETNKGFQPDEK
Experimental: as §2, §3, §1

[1] = Body weight, mortality and observations in HBV-infected PXB mice; type: in vivo; settings: 10 and 30 mg/kg

For `CCCCC1CN(c2ccccc2)c2cc(SC)c(O/C=C(\F)C(=O)O)cc2S(=O)(=O)N1C` (stereo not shown) [Compound 1, (Z)-3-((3-butyl-2-methyl-7-(methylthio)-1,1-dioxido-5-phenyl-2,3,4,5-tetrahydro-1,2,5-benzothiadiazepin-8-yl)oxy)-2-fluoroacrylic acid], which IC50 (Mouse NTCP) is on record?
Its IC50 is 1.82 ± 0.25 nM.

What about the IC50 (Human IBAT) of the same compound?
The IC50 was 535 ± 83.3 nM.

And the IC50 (Mouse IBAT)?
Its IC50 is 40.8 ± 4.6 nM.

And the “observations related to treatment” value [1]?
The value was “No noteworthy observations”.
